# Where no end group is shown, it is not given here.
# Assays:
# [1] = system: S. aureus Mu50 infection; assay: Mouse abdominal infection model; type: in vivo, C57BL/6 mice; conditions: for number of mice that survived: Mu50+DiPGLa-H
# Protocol: (§1) Six-to-eight-week-old C57BL/6 male mice were selected for the experiment and housed in cages under specific pathogen-free conditions with water and laboratory mouse chow. Each strain was divided into three groups, and each group and the second group were required to be injected intraperitoneally with a lethal amount of bacterial fluid with a working fluid concentration of 64 µg/mL of DiPGLa-H, and the third group was injected with PBS. […] Then homogenized and serially diluted with PBS to 10^7 times. 100 µL of the gradient dilution was applied to the TSA plate, which was subsequently incubated at 37°C overnight and counted the next day for survival analysis using GraphPad Prism software. The protocol and use of animals were approved by the Institutional Animal Care and Use Committee of the Northwest A&F University.
# [2] = system: E. coli K88 infection; assay: Mouse abdominal infection model; type: in vivo, C57BL/6 mice; conditions: for number of mice that survived: K88+DiPGLa-H
# Protocol: as §1
# [3] = system: A. baumannii ATCC19606 biofilm; assay: Anti-biofilm assay (crystal violet); type: cell-based, Acinetobacter baumannii
# Protocol: (§2) The anti-biofilm activity of DiPGLa-H was evaluated using a crystal violet staining method. Briefly, 100 µL of bacterial suspension at 1 × 10^6 CFU/mL was incubated with DiPGLa-H (0–64 µM) for 48 h. The biofilm formed was stained with 1% crystal violet, and the absorbance was measured at 595 nm. The biofilm formation and mature biofilm removal assays were conducted. For biofilm formation, a bacterial suspension was incubated with DiPGLa-H, and biofilm content was quantified. To assess mature biofilm removal, pre-formed biofilms were treated with DiPGLa-H for 24 h, followed by quantification. Detailed Protocol in Supplementary Materials.
# (§3) To test the ability of DiPGLa-H to […] on the test bacteria, a single colony was inoculated in MHB medium and incubated overnight at 37 °C and 180 r/min, and 1% of the bacterial suspension was taken and continued to be amplified and incubated for 2 h. […] The biofilm content was analyzed by measuring the absorbance value at 595 nm, and anhydrous ethanol was used as a blank control. […]
# [4] = system: E. coli K88 biofilm; assay: Anti-biofilm assay (crystal violet); type: cell-based, Escherichia coli
# Protocol: as §2, §3
# [5] = system: E. coli K88 inner membrane; assay: Inner membrane integrity assay (PI); type: cell-based, Escherichia coli; conditions: 4 µM peptide, 30 min
# Protocol: The outer and inner membrane integrity of bacterial cells treated with peptides was assessed using NPN and PI staining, respectively. Full details are provided in the Supplementary Materials.
# Inner membrane integrity assay. E. coli K88 cells were washed and resuspended in 0.01 mol l−1 of PBS (pH 7.4) to obtain an OD600 of 0.5, followed by the addition of 10 nmol l−1 of PI (Thermo Fisher Scientific, catalogue no. P1304MP) in the presence of […]. After incubation for 30 min, fluorescence was measured with the excitation wavelength at 535 nm and emission wavelength at 615 nm.
# [6] = system: E. coli K88; assay: LPS binding assay (MIC with exogenous LPS); type: cell-based, Escherichia coli; conditions: increasing addition of external LPS, 37°C 24 h, 492 nm
# Protocol: LPS (Sigma, USA) and LTA (Sigma, USA) were dissolved in water at a concentration of 5 mg/mL. Fifty microliters of DiPGLa-H with a concentration gradient of 1–64 μM and 50 µL of LPS or LTA master mix with different concentration gradients were added to the 96-well plate in 2-fold dilution, and finally, 100 µL of diluted E. coli K88 or S. aureus Mu50 was added, incubated at 37°C in a constant temperature incubator for 24 h. The MIC was determined by absorbance at 492 nm using an enzyme marker as the lowest peptide concentration that inhibited 95% of the bacterial growth.
# [7] = heart, liver, spleen, 1 day after infection, 5 mice per group
# [8] = 1×10^6 CFU/mL, DiPGLa-H 0-64 µM, 48 h, crystal violet, 595 nm
# [9] = pre-formed biofilm treated with DiPGLa-H 0-64 µM for 24 h
substance,measurement,setting,value
KIAKVALKALKIAKVALKAL-NH2 (C-terminus assumed) [DiPGLa-H],increase of survival rate of mice,"[1]; C57BL/6 male mice, intraperitoneal lethal Mu50, DiPGLa-H working concentration 64 µg/mL, 16 mice per group",31%
same,number of mice that survived,"[1]; day 1, of 16 mice",12
same,number of mice that survived,"[1]; day 2, of 16 mice",11
same,number of mice that survived,"[1]; day 3, of 16 mice",10
same,number of mice that survived,"[1]; day 4, of 16 mice",8
same,number of mice that survived,"[1]; day 5, of 16 mice",6
same,number of mice that survived,"[1]; day 6, of 16 mice",6
same,number of mice that survived,"[1]; day 7, of 16 mice",5
same,number of mice that survived,"[1]; day 8, of 16 mice",5
same,reduction of bacterial loads in the organs,[1]; [7],100 fold
same,number of mice that survived,"[2]; day 1, of 16 mice",13
same,number of mice that survived,"[2]; day 2, of 16 mice",12
same,number of mice that survived,"[2]; day 3, of 16 mice",10
same,number of mice that survived,"[2]; day 4, of 16 mice",9
same,number of mice that survived,"[2]; day 5, of 16 mice",9
same,number of mice that survived,"[2]; day 6, of 16 mice",9
same,number of mice that survived,"[2]; day 7, of 16 mice",9
same,number of mice that survived,"[2]; day 8, of 16 mice",9
same,reduction of bacterial loads in the organs,[2]; [7],"1,000 fold"
same,concentration for effective inhibition of biofilm formation,[3]; [8],above 4 µM
same,concentration effectively eradicating biofilms,[3]; [9],above 16 µM
same,concentration for effective inhibition of biofilm formation,[4]; [8],above 4 µM
same,concentration effectively eradicating biofilms,[4]; [9],above 16 µM
same,inner membrane damage (PI),[5],267%
same,reduction of antibacterial activity by external LPS,[6],16 fold

# — publication PMC11921344, “Antimicrobial peptide DiPGLa-H exhibits the most outstanding anti-infective activity among the PGLa variants based on a systematic comparison” (Applied and Environmental Microbiology, 2025)
